Data: patent US7875600B2, “Pyrimidine compounds as purine receptor antagonist” (Vernalis (R&D) Limited, priority 2004, dated 2011)

melting point	Structure (SMILES)
126.7 to 127.2 °C	Nc1nc(C(=O)NC2CCc3ccccc32)cc(-c2ccco2)n1 (stereo in doubt) [Example 78, (R)-2-Amino-6-(2-furyl)-N-(1-indanyl)pyrimidine-4-carboxamide]
111.8 to 112.5 °C	Nc1nc(C(=O)NC2CCc3ccccc32)cc(-c2ccco2)n1 (stereo in doubt) [Example 79, (S)-2-Amino-6-(2-furyl)-N-(1-indanyl)pyrimidine-4-carboxamide]
229.2 to 234.5 °C	COc1cccc(CNC(=O)c2cc(-c3ccco3)nc(N)n2)c1 [Example 3, 2-Amino-6-(2-furyl)-N-(3-methoxybenzyl)pyrimidine-4-carboxamide]
139.5 to 143 °C	Nc1nc(C(=O)N2CCCCC2)cc(-c2ccco2)n1 [Example 5, 1-(2-Amino-6-(2-furyl)pyrimidin-4-ylcarbonyl)piperidine]
218 to 219.8 °C	NC(=O)c1cc(-c2ccco2)nc(N)n1 [Example 8, 2-Amino-6-(2-furyl)pyrimidine-4-carboxamide]
202.4 to 202.9 °C	CN(C)c1ccc(CNC(=O)c2cc(-c3ccco3)nc(N)n2)cc1 [Example 9, 2-Amino-6-(2-furyl)-N-(4-dimethylaminobenzyl)pyrimidine-4-carboxamide]
170.6 to 170.7 °C	Nc1nc(C(=O)NCc2cccc(C(F)(F)F)c2)cc(-c2ccco2)n1 [Example 16, 2-Amino-N-(3-trifluoromethylbenzyl)-6-(2-furyl)pyrimidine-4-carboxamide]
290.9 to 291.3 °C	Nc1nc(C(=O)NCc2nc3ccccc3[nH]2)cc(-c2ccco2)n1 [Example 17, 2-Amino-N-(1H-benzimidazol-2-ylmethyl)-6-(2-furyl)pyrimidine-4-carboxamide]
195.5 to 197.5 °C	Nc1nc(C(=O)NCc2ncccc2CN2CCOCC2)cc(-c2ccco2)n1 [Example 22, 2-Amino-6-(2-furyl)-N-(3-(4-morpholinylmethyl)pyridin-2-ylmethyl)pyrimidine-4-carboxamide]
178 to 178.1 °C	COc1nc(C)ccc1CNC(=O)c1cc(-c2ccco2)nc(N)n1 [Example 29, 2-Amino-6-(2-furyl)-N-(2-methoxy-6-methylpyridin-3-ylmethyl)pyrimidine-4-carboxamide]
209.5 to 210.3 °C	Cn1ccnc1CNC(=O)c1cc(-c2ccco2)nc(N)n1 [Example 34, 2-Amino-6-(2-furyl)-N-(1-methyl-1H-imidazol-2-ylmethyl)pyrimidine-4-carboxamide]
170.1 to 170.5 °C	Nc1nc(C(=O)NCc2ccc3[nH]ccc3c2)cc(-c2ccco2)n1 [Example 35, 2-Amino-6-(2-furyl)-N-(5-indolylmethyl)pyrimidine-4-carboxamide]
155.9 to 156 °C	Cc1[nH]c2ccc(CNC(=O)c3cc(-c4ccco4)nc(N)n3)cc2c1C [Example 36, 2-Amino-N-(2,3-dimethylindol-5-ylmethyl)-6-(2-furyl)pyrimidine-4-carboxamide]
191.8 to 192.2 °C	Cc1cc(CNC(=O)c2cc(-c3ccco3)nc(N)n2)ccc1[N+](=O)[O-] [Example 37, 2-Amino-6-(2-furyl)-N-(3-methyl-4-nitrobenzyl)pyrimidine-4-carboxamide]
105.6 to 105.7 °C	Cc1cc2cc(CNC(=O)c3cc(-c4ccco4)nc(N)n3)ccc2[nH]1 [Example 40, 2-Amino-6-(2-furyl)-N-(2-methylindol-5-ylmethyl)pyrimidine-4-carboxamide]
155.2 to 155.7 °C	CC(C)NC(=O)OCc1cccc(CNC(=O)c2cc(-c3ccco3)nc(N)n2)n1 [Example 41, 6-(2-Amino-6-(2-furyl)pyrimidine-4-carboxamidomethyl)pyridin-2-ylmethyl isopropylcarbamate]
148 to 148.4 °C	COCc1ccc(C)c(CNC(=O)c2cc(-c3ccco3)nc(N)n2)n1 [Example 46, 2-Amino-6-(2-furyl)-N-(6-methoxymethyl-3-methylpyridin-2-ylmethyl)pyrimidine-4-carboxamide]
193.8 to 194 °C	Nc1nc(C(=O)NCc2ccc3cc[nH]c3c2)cc(-c2ccco2)n1 [Example 48, 2-Amino-6-(2-furyl)-N-(6-indolylmethyl)pyrimidine-4-carboxamide]
230.7 to 230.9 °C	Nc1nc(C(=O)NCc2cccc3cccnc23)cc(-c2ccco2)n1 [Example 49, 2-Amino-6-(2-furyl)-N-(quinolin-8-ylmethyl)pyrimidine-4-carboxamide]
171.2 to 172.1 °C	Nc1nc(C(=O)NCc2ccc3nsnc3c2)cc(-c2ccco2)n1 [Example 53, 2-Amino-N-([2,1,3]benzothiadiazol-5-ylmethyl)-6-(2-furyl)pyrimidine-4-carboxamide]
180.9 to 181.4 °C	Nc1nc(C(=O)NCc2ccc3ccccc3n2)cc(-c2ccco2)n1 [Example 57, 2-Amino-6-(2-furyl)-N-(quinolin-2-ylmethyl)pyrimidine-4-carboxamide]

melting point	Structure (SMILES)
219.9 to 222.3 °C	Nc1nc(C(=O)NCc2nc3ccccc3s2)cc(-c2ccco2)n1 [Example 58, 2-Amino-N-(benzothiazol-2-ylmethyl)-6-(2-furyl)pyrimidine-4-carboxamide]
154.5 to 156.9 °C	Cc1ccc(COCC2CC2)nc1CNC(=O)c1cc(-c2ccco2)nc(N)n1 [Example 59, 2-Amino-N-(6-cyclopropylmethoxymethyl-3-methylpyridin-2-ylmethyl)-6-(2-furyl)pyrimidine-4-carboxamide]
158.7 to 158.9 °C	C[C@H](NC(=O)c1cc(-c2ccco2)nc(N)n1)c1ccccc1 [Example 60, (S)-2-Amino-6-(2-furyl)-N-(1-phenylethyl)pyrimidine-4-carboxamide]
158.8 to 159.1 °C	C[C@@H](NC(=O)c1cc(-c2ccco2)nc(N)n1)c1ccccc1 [Example 63, (R)-2-Amino-6-(2-furyl)-N-(1-phenylethyl)pyrimidine-4-carboxamide]
226.2 to 226.3 °C	Nc1nc(C(=O)N2Cc3ccccc3C2)cc(-c2ccco2)n1 [Example 66, 2-(2-Amino-6-(2-furyl)pyrimidin-4-ylcarbonyl)-2,3-dihydro-1H-isoindole]
193.3 to 193.6 °C	Nc1nc(C(=O)N2CCc3ccccc3C2)cc(-c2ccco2)n1 [Example 71, 2-(2-Amino-6-(2-furyl)pyrimidin-4-ylcarbonyl)-1,2,3,4-tetrahydroisoquinoline]
203.8 to 204.5 °C	Nc1nc(C(=O)N2CCCc3ccccc32)cc(-c2ccco2)n1 [Example 72, 1-(2-Amino-6-(2-furyl)pyrimidin-4-ylcarbonyl)-1,2,3,4-tetrahydroquinoline]
251.9 to 252.3 °C	Nc1nc(C(=O)N2CCc3ccccc32)cc(-c2ccco2)n1 [Example 75, 1-(2-Amino-6-(2-furyl)pyrimidin-4-ylcarbonyl)-2,3-dihydroindole]
131 to 131.1 °C	Nc1nc(C(=O)NCCCc2ccccc2)cc(-c2ccco2)n1 [Example 83, 2-Amino-6-(2-furyl)-N-(3-phenylpropyl)pyrimidine-4-carboxamide]
151.6 to 155.7 °C	CCCNC(=O)OCc1cccc(CNC(=O)c2cc(-c3ccco3)nc(N)n2)n1 [Example 85, 6-(2-Amino-6-(2-furyl)pyrimidine-4-carboxamidomethyl)pyridin-2-ylmethyl n-propylcarbamate]
191.9 to 192 °C	Cc1cnc(CNC(=O)c2cc(-c3ccco3)nc(N)n2)cn1 [Example 88, 2-Amino-6-(2-furyl)-N-(5-methylpyrazin-2-ylmethyl)pyrimidine-4-carboxamide]
220 to 221.3 °C	Nc1nc(C(=O)NC2Cc3ccccc3C2)cc(-c2ccco2)n1 [Example 90, 2-Amino-6-(2-furyl)-N-(2-indanyl)pyrimidine-4-carboxamide]
> 200 °C (dec.)	Nc1nc(C(=O)NCc2ncc[nH]2)cc(-c2ccco2)n1 [Example 91, 2-Amino-6-(2-furyl)-N-(1H-imidazol-2-ylmethyl)pyrimidine-4-carboxamide]
270.7 to 271.5 °C	CCCn1ccnc1CNC(=O)c1cc(-c2ccco2)nc(N)n1 [Example 92, 2-Amino-6-(2-furyl)-N-(1-n-propyl-1H-imidazol-2-ylmethyl)pyrimidine-4-carboxamide]
178.1 to 179.3 °C	Nc1nc(C(=O)NCc2cccc(Br)n2)cc(-c2ccco2)n1 [Example 94, 2-Amino-N-(6-bromopyridin-2-ylmethyl)-6-(2-furyl)pyrimidine-4-carboxamide]
248.2 to 249 °C	Nc1nc(C(=O)NCCCn2ccnc2)cc(-c2ccco2)n1 [Example 96, 2-Amino-6-(2-furyl)-N-(3-(1H-imidazol-1-yl)propyl)pyrimidine-4-carboxamide]
263.1 to 264.9 °C	CCn1ccnc1CNC(=O)c1cc(-c2ccco2)nc(N)n1 [Example 98, 2-Amino-N-(1-ethyl-1H-imidazol-2-ylmethyl)-6-(2-furyl)pyrimidine-4-carboxamide]
203 to 203.1 °C	Cc1ccc(CNC(=O)c2cc(-c3ccco3)nc(N)n2)c(N(C)C)n1 [Example 102, 2-Amino-N-(2-dimethylamino-6-methylpyridin-3-ylmethyl)-6-(2-furyl)pyrimidine-4-carboxamide]
144.1 to 144.3 °C	CCCc1cccc(CNC(=O)c2cc(-c3nccs3)nc(N)n2)n1 [Example 109, 2-Amino-N-(6-n-propylpyridin-2-ylmethyl)-6-(thiazol-2-yl)pyrimidine-4-carboxamide]
168.6 to 168.9 °C	COCc1cccc(CNC(=O)c2nc(N)nc(-c3ccc(C)o3)c2Cl)n1 [Example 116, 2-Amino-5-chloro-N-(6-methoxymethylpyridin-2-ylmethyl)-6-(5-methyl-2-furyl)pyrimidine-4-carboxamide]
193.5 to 195.1 °C	COCc1cccc(CNC(=O)c2nc(N)nc(-c3ccc(C)o3)c2Br)n1 [Example 117, 2-Amino-5-bromo-N-(6-methoxymethylpyridin-2-ylmethyl)-6-(5-methyl-2-furyl)pyrimidine-4-carboxamide]
